Measured values as given in PubChem BioAssay AID1411 (The Scripps Research Institute Molecular Screening Center, 2008).
Calls of active or inactive are those of the source. The rule behind the calls is not given here.

The compounds below were run against Signal transducer and activator of transcription 1-alpha/beta (Homo sapiens) (UniProt P42224) (assay: STAT1 reporter inhibitors, potency curves, dose response, counter-screen for STAT3 inhibitor project, cell-based, NIH 3T3, luciferase reporter (AID 1411)). Settings: NIH 3T3 fibroblasts, counterscreen.
Signal transducer and activator of transcription 1-alpha/beta (Homo sapiens), sequence (P42224 whole entry, looked up): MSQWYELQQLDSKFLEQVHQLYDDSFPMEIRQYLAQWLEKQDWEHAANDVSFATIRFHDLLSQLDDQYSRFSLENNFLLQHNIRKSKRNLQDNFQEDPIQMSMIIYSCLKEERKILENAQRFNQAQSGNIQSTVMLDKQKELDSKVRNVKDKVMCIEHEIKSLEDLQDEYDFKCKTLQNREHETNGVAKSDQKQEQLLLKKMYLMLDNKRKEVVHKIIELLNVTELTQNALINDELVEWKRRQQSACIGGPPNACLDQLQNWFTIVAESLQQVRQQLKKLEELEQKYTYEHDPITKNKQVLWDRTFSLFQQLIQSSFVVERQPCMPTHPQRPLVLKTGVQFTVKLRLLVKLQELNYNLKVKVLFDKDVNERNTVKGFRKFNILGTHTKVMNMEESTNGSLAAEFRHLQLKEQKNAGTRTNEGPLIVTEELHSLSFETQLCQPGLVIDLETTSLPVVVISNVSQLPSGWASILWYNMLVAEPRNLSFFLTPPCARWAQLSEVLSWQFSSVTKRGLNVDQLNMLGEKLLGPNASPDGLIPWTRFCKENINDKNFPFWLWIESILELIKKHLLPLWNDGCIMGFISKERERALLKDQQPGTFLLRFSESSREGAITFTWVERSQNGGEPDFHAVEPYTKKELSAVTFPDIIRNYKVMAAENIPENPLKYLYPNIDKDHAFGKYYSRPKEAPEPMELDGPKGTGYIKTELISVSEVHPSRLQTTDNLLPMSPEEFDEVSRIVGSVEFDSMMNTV

SMILES	IC50
Cn1c(CN2CCCCC2)nc2cc(NC(=O)c3cccc(Br)c3)ccc21	> 55.7 µM (inactive)
Cc1cc(C)n(Cc2ccc(NC(=O)c3ccc(COc4ccccc4Br)cc3)cc2)n1	> 55.7 µM (inactive)
Cc1nc2ccccc2cc1OCc1ccc(F)cc1	> 55.7 µM (inactive)
Cc1ccc(-n2nnnc2SCn2nnc3ccccc3c2=O)c(C)c1	> 55.7 µM (inactive)
O=C(COC(=O)c1n[nH]c2ccccc12)Nc1ccc(S(=O)(=O)N2CCCC2)cc1	> 55.7 µM (inactive)
CCC(C)NC(=S)Nc1ccc(C(=O)OC)cc1 (centres undefined)	> 55.7 µM (inactive)
Clc1ccc(CSc2nnc(Cn3cnc4ccccc43)o2)cc1	> 55.7 µM (inactive)
Cc1cc(NC(=O)c2cc(-c3cccs3)on2)nn1Cc1ccc(Cl)cc1	> 55.7 µM (inactive)
Cn1c(=O)oc2cc(S(=O)(=O)N3CCCC(C(=O)N4CC=C(c5ccccc5)CC4)C3)ccc21 (centres undefined)	> 55.7 µM (inactive)
COc1ccc(NS(=O)(=O)c2ccc(NC(=O)c3ccc(N(C)S(C)(=O)=O)cc3)cc2)cc1	> 55.7 µM (inactive)
NNC(=O)c1cccc(COc2ccccc2Br)c1	inactive
Cc1nc2ccccc2cc1OCc1ccccc1	> 55.7 µM (inactive)
Cc1cccc(-c2nc3cc(NC(=O)C4CCCO4)ccc3o2)c1 (centres undefined)	inactive
O=C(Oc1ccccc1N1C(=O)C2CCCCC2C1=O)c1ccccc1 (centres undefined)	> 55.7 µM (inactive)
Cc1ccc(Cl)cc1N1CCN(C(=O)COc2ccc(S(=O)(=O)NC(C)C)cc2)CC1	> 55.7 µM (inactive)
COc1cc(OC)cc(C(=O)Nc2nnc(NC(=S)Nc3ccccc3)s2)c1	> 55.7 µM (inactive)
O=C(Nc1ccncc1)c1ccc2c(c1)C(=O)N(C1CCCCC1)C2=O	> 55.7 µM (inactive)
Cc1ccc(-n2ncc3c(SCc4cccnc4)ncnc32)c(C)c1	> 55.7 µM (inactive)
CC(=O)Nc1ccc(-c2csc(Nc3ccc(Cl)cn3)n2)cc1	> 55.7 µM (inactive)
CCCCOc1ccc(C(=O)Nc2ccncc2)cc1	> 55.7 µM (inactive)
CCOC(=O)Cc1csc(SCC(=O)c2c(N)n(CC(C)C)c(=O)n(C)c2=O)n1	> 55.7 µM (inactive)
O=C1C2C3c4ccccc4C(c4ccccc43)C2c2nc3ccccc3n21 (centres undefined)	> 55.7 µM (inactive)
CC(=O)c1ccc(N=Nc2ccc(C)cc2)cc1	inactive
O=C(Oc1cccc(Nc2ncnc3ccccc23)c1)c1ccccc1Cl	> 55.7 µM (inactive)
Cc1csc(NC(=O)c2cc3c(s2)CCCC3)n1	inactive

SMILES	IC50
O=C(Nc1ccc(N2CCOCC2)nc1)c1ccc(C(F)(F)F)cc1	> 55.7 µM (inactive)
O=C(Nc1cccc(O)c1)c1noc2c1CCc1ccccc1-2	inactive
COc1ccc(C)cc1-n1nnnc1SCn1nnc2ccccc2c1=O	> 55.7 µM (inactive)
CCC(C)(C)c1ccc(OCCCC[n+]2cccc(C)c2)c(C(C)(C)CC)c1	> 55.7 µM (inactive)
O=C(Nc1ccc(Oc2ccccc2)cc1)c1cnc2n(c1=O)CCS2	> 55.7 µM (inactive)
O=C(Nc1ccc(Oc2ccccc2)cc1)C1CCN(c2c3c(nc4ncnn24)CCC3)CC1	> 55.7 µM (inactive)
c1ccc(C(Cc2nc(-c3ccncc3)no2)c2ccccc2)cc1	> 55.7 µM (inactive)
O=C(Nc1cccc(Cl)c1)Nc1ccnc(-c2cccnc2)n1	> 55.7 µM (inactive)
CCOc1ncccc1C(=O)OCC(=O)Nc1ccc(-c2nc3ccc(C)cc3s2)cc1	inactive
CC(=O)c1cn(CC(=O)Nc2ccccc2C)c2ccccc12	> 55.7 µM (inactive)
O=C(Nc1ccc(N2CCN(C(=O)c3ccco3)CC2)c(Cl)c1)c1cc2ccccc2o1	inactive
Cc1cc(OCC(=O)Nc2ccncc2)cc(C)c1Br	> 55.7 µM (inactive)
Cc1ccccc1OCCCCn1cnc2ccccc21	> 55.7 µM (inactive)
Cc1cccc(N2CCN(C(=O)CSCc3c(C)noc3C)CC2)c1C	> 55.7 µM (inactive)
O=S(=O)(c1ccc2c(c1)OCCO2)N1CCC(c2nc3ccccc3s2)CC1	> 55.7 µM (inactive)
O=C(Nc1ccn(Cc2ccccc2F)n1)c1ccc(COc2ccc(Br)cc2)cc1	> 55.7 µM (inactive)
C[C@H]1O[C@@H](O[C@H]2[C@@H](O)C[C@H](O[C@H]3[C@@H](O)C[C@H](O[C@H]4CC[C@@]5(C)[C@H](CC[C@@H]6[C@@H]5C[C@@H](O)[C@]5(C)[C@@H](C7=CC(=O)OC7)CC[C@]65O)C4)O[C@@H]3C)O[C@@H]2C)C[C@H](O)[C@@H]1O	> 55.7 µM (inactive)
COc1ccc(Br)cc1/C(C)=N/NC1=NCCN1	> 55.7 µM (inactive)
CCOC(=O)c1sc2nc(CC(=O)OC)nc(NCc3ccc(Cl)cc3)c2c1C	> 55.7 µM (inactive)
COC(=O)Oc1ccc(/C=N/NC(=O)CSCc2ccccc2Br)cc1OC	> 55.7 µM (inactive)
COc1ccc(/C=N/NC(=S)Nc2ccccc2[N+](=O)[O-])cc1O	> 55.7 µM (inactive)
COc1cc(OC)cc(C(=O)Nc2ccc(-c3nc4ccccc4o3)cc2)c1	> 55.7 µM (inactive)
CCCOc1ccc(/C=N/NC(=S)Nc2ccccc2[N+](=O)[O-])c(O)c1	> 55.7 µM (inactive)
Cc1ccsc1/C=C1\CCc2ccccc2C1=O	7.89 µM
COc1ccc(CC(=O)Nc2cccc(-c3nnc(-c4cccc(C)c4)o3)c2)cc1OC	inactive

SMILES	IC50
Cc1cccc(C)c1NC(=O)N1CCN(c2nc3ccccc3s2)CC1	> 55.7 µM (inactive)
CCCCCCCc1ccc(-c2ccc(O)cc2)nc1	> 55.7 µM (inactive)
COc1ccccc1OCC(=O)c1[nH]c(C)c(C(C)=O)c1C	> 55.7 µM (inactive)
Cc1cc(OCC(=O)Nc2ccncc2)ccc1Br	> 55.7 µM (inactive)
Nc1cc(-c2ccc(Br)cc2)nn1Cc1ccccc1	> 55.7 µM (inactive)
Cc1nn2cc(-c3ncc(C(F)(F)F)cc3Cl)cnc2c1Br	inactive
CSc1ccc(NC(=O)N2CCN(c3nc4ccccc4s3)CC2)cc1	> 55.7 µM (inactive)
CCCNC(=O)c1ccc(-c2nc3ccccc3s2)s1	inactive
Cc1nc2sccn2c1-c1csc(NCc2ccccc2)n1	> 55.7 µM (inactive)
Cc1ccc(N2C(=O)c3ccccc3C2O)nc1 (centres undefined)	inactive
O=C1CCCN1c1ccc(S(=O)(=O)N2CCC(c3ccccc3)CC2)cc1	> 55.7 µM (inactive)
CCOC(=O)c1ccc(NC(=O)c2ccc(CN3CCOCC3)cc2)cc1	> 55.7 µM (inactive)
O=C(COc1ccc2ccccc2c1)Nc1ccncc1	> 55.7 µM (inactive)
CC(C)Cn1c(N)c(C(=O)CSc2ccccc2)c(=O)n(C)c1=O	> 55.7 µM (inactive)
CC1CCCCC1NS(=O)(=O)c1ccc(S(=O)(=O)NCc2ccncc2)cc1 (centres undefined)	> 55.7 µM (inactive)
NC(=O)C1CCN(c2ccc(S(=O)(=O)N3CCC(Cc4ccccc4)CC3)cn2)CC1	> 55.7 µM (inactive)
O=C(Nc1ccn(Cc2ccccc2F)n1)c1ccc(COc2ccccc2Cl)cc1	> 55.7 µM (inactive)
O=C(C1CCN(c2nc3ccc(Br)cc3s2)CC1)N1CCC2(CC1)OCCO2	> 55.7 µM (inactive)
Nc1cc(-c2ccccc2)nn1Cc1ccc(Cl)cc1	> 55.7 µM (inactive)
O=C(Nc1nc(-c2ccc(Cl)s2)cs1)c1ccncc1	> 55.7 µM (inactive)
Clc1ccc2ncc(-c3nnnn3-c3ccccc3)c(-c3ccccc3)c2c1	> 55.7 µM (inactive)
Cc1ccc(-c2cn3cc([N+](=O)[O-])ccc3n2)cc1	> 18.6 µM (inactive)
COc1cccc(-c2cc(C(=O)Nc3cccc(O)c3)no2)c1	inactive
CCOC(=O)C1=C(Cc2ccc(C)cc2)C(=O)c2ccccc2C1=O	> 55.7 µM (inactive)
CCOc1cc(C(=S)N2CCOCC2)ccc1OS(=O)(=O)c1ccc(NC(C)=O)cc1	> 55.7 µM (inactive)

SMILES	IC50
O=C(Nc1ccc(Cc2ccncc2)cc1)c1ccc(S(=O)(=O)N2CCOCC2)cc1	> 55.7 µM (inactive)
CN1/C(=C\C(=O)C[n+]2ccc3ccccc3c2)C(C)(C)c2ccccc21	> 55.7 µM (inactive)
CCc1c(C)c2ccc(OCC(=O)OC(C)C)c(C)c2oc1=O	> 55.7 µM (inactive)
O=C(Nc1cccc(O)c1)C(=O)Nc1ccccn1	inactive
CNC(=O)Oc1cccc(-c2cn3cc(Cl)ccc3n2)c1	inactive
O=C1C2C3c4ccccc4C(c4ccccc43)[C@@H]2c2nc3ccccc3n21 (some centres undefined)	> 55.7 µM (inactive)
CNc1ccccc1C(C)(C)c1cc(-c2ccc(F)cc2)no1	> 55.7 µM (inactive)
CCN(CC)c1ccc(NC(=O)CN2C(=O)CSc3ncccc32)c(C)c1	> 55.7 µM (inactive)
O=C1c2ccc(Br)cc2C(=O)N1c1ccc(Cc2ccncc2)cc1	> 55.7 µM (inactive)
CC1CCC2C(=O)N(c3ccccc3OC(=O)c3ccccc3)C(=O)C2C1 (centres undefined)	> 55.7 µM (inactive)
CC(=O)N1CCc2cc(S(=O)(=O)NC3CCCc4ccccc43)ccc21 (centres undefined)	> 55.7 µM (inactive)
CN(C)S(=O)(=O)c1ccc(C(=O)Nc2nc(-c3cccs3)cs2)cc1	> 55.7 µM (inactive)
COc1ccc2nc3c(cc2c1)c(NC(=O)c1cccs1)nn3CC(C)C	> 55.7 µM (inactive)
COc1ccc(/C=N/NC(=S)Nc2cccc(C(=O)O)c2)cc1	inactive
Nc1c(C(=O)NC2CCCCC2)nsc1C(=O)OCC(=O)NC1CCCCC1	> 55.7 µM (inactive)
CC[n+]1ccccc1/C=C/c1ccc(N(C)C)cc1	> 55.7 µM (inactive)
c1ccc(CC2CCN(c3ncnc4sccc34)CC2)cc1	> 55.7 µM (inactive)
O=C(CSc1ccc2ccccc2c1)Nc1ccncc1	> 55.7 µM (inactive)
Cc1ccc2c(C)nc(Nc3nc(CSc4nc5ccccc5[nH]4)cc(=O)[nH]3)nc2c1	> 55.7 µM (inactive)
COc1ccc(CC(=O)Nc2cccc(SC)c2)cc1OC	> 55.7 µM (inactive)
CN(C)S(=O)(=O)Oc1cccc(C(=O)Nc2ccc(Cl)cc2)c1	> 55.7 µM (inactive)
O=c1c2c(nc3n1CCCCC3)sc1c(O)cccc12	> 55.7 µM (inactive)
O=C(Nc1ccncc1)c1ccc(-c2ccccc2)cc1	> 55.7 µM (inactive)
C[C@H]1CCC[C@@H](O)CCC/C=C/c2cc(O)cc(O)c2C(=O)O1	> 55.7 µM (inactive)
